Source: US6902901B2, “Polypeptides useful for diagnosis of Aspergillus fumigatus and a process of preparing the same” (Council of Scientific and Industrial Research, priority 1998, dated 2005)

Tests used:
[1] = tested on: sensitised mast cells of ABPA patients; assay: Histamine release from heparinised whole blood incubated with peptides; format: cell-based, human; settings: 30 min at 37° C.
Protocol: Whole blood (heparinised) was incubated with the peptides for 30 min at 37° C. in polystyrene plates followed by centrifugation and collection of supernatants. The supernatants were acylated and were assayed for acylated histamine by histamine assay kit (Immunotech International).

[2] = tested on: mixture of A. fumigatus allergens/antigens and purified 18 kD allergen/antigen; assay: Intraperitoneal immunisation of mice with peptide, serum IgG ELISA; format: in vivo, BALB/c mice; settings: Immunised mice; 300 ug peptide i.p. with Freund's incomplete adjuvant; serum 30 days after immunization
Protocol: Each synthetic peptide (300 ug/150 ul saline) was emulsified with an equal volume of Freund's incomplete adjuvant and used for intraperitoneal immunisation of 3 BALB/c mice. IgG antibodies in the serum collected from these mice 30 days after immunization bound with mixture of A. fumigatus allergens/antigens and purified 18 kD allergen/antigen in ELISA.

[3] = tested on: A. fumigatus specific IgE antibodies in sera; assay: ELISA of peptide-coated plates with human sera, specific IgE binding
Protocol: Sera derived from 25 healthy persons and 30 culture proven allergic bronchopulmonary aspergillosis patients were probed with synthetic peptides of the present invention for A. fumigatus specific antibodies. NUNC ELISA plates were coated with 0-1 ug/ml of peptide in carbonate-bicarbonate buffer, 0.01 M, pH 9.6 for 2 h at 37° C. The unreacted sites were blocked with bovine serum albumin in phosphate buffered saline, 0.01 M, pH 7.4. Diluted sera (1:100) of patients or healthy controls was added to the wells and Incubated for 3 h at 37° C. […]

[4] = tested on: Peripheral blood lymphocytes (PBL); assay: Cytokine analysis of PBMC supernatants incubated with peptides; format: cell-based, human; settings: PBMC supernatant, 6 days culture with peptide
Protocol: Peripheral blood lymphocytes (PBL) from healthy donors and aspergillosis patients were fractionated and 2×10^6 cells/well were cultured in presence or absence of synthetic peptides for 6 days in RPMI 1640 medium with 10% autologous serum. The supernatant medium was collected for cytokine analysis and 0.5 mg/ml solution of MTT was added to each well for 30 min. before harvesting cultures with acidified isopropanol. Absorbance was measured at 590 nm.

[5] = tested on: A. fumigatus specific IgG antibodies in sera; assay: ELISA of peptide-coated plates with human sera, specific IgG binding; settings: diluted 1:100
Protocol: Sera derived from 25 healthy persons and 30 culture proven allergic bronchopulmonary aspergillosis patients were probed with synthetic peptides of the present invention for A. fumigatus specific antibodies. NUNC ELISA plates were coated with 0-1 ug/ml of peptide in carbonate-bicarbonate buffer, 0.01 M, pH 9.6 for 2 h at 37° C. The unreacted sites were blocked with bovine serum albumin in phosphate buffered saline, 0.01 M, pH 7.4. Diluted sera (1:100) of patients or healthy controls was added to the wells and Incubated for 3 h at 37° C. Washed plates received anti-human IgG-HRP conjugate for 1.5 h at 37° C. washed plates were then assayed with o-phenylene diamine substrate and read at 492 nm.

| Substance | Histamine released ([1]; Normal whole blood) [nM] | Histamine released ([1]; Patient (ABPA) whole blood) [nM] | Absorbance at 490 nm, specific IgG antibodies in mice [2] | Absorbance at 490 nm, Specific IgE ([3]; Normal sera) | Absorbance at 490 nm, Specific IgE ([3]; Patient sera (ABPA)) | IL-2 [4] [pg/mL] | IL-4 [4] [pg/mL] | IL-6 [4] [pg/mL] | IL-10 [4] [pg/mL] | gamma-IFN [4] [pg/mL] | Absorbance at 490 nm, Specific IgG ([5]; Normal sera) | Absorbance at 490 nm, Specific IgG ([5]; Patient sera (ABPA)) |
| --- | --- | --- | --- | --- | --- | --- | --- | --- | --- | --- | --- | --- |
| INQQLNPK (listed as Aspergillus fumigatus) [pep 3, 8 aminoacids peptide, aa 6-14 (also printed aa 6-13) of the 18 kD allergen/antigen] | 65 | 369 | 0.434 | 0.042 | 0.256 | 80 | 92 | 620 | 220 | 168 | 0.011 | 0.674 |
| INQQLNPKTNKWEDK (listed as Aspergillus fumigatus) [pep 4, 15 aminoacids peptide, aa 6-20 of the 18 kD allergen/antigen] | 58 | 392 | 0.526 | 0.028 | 0.235 | 400 | 28 | 120 | 40 | 520 | 0.006 | 0.845 |
| LNPKTNKWEDK (listed as Aspergillus fumigatus) [pep 2, 11 aminoacids peptide, aa 10-20 of the 18 kD allergen/antigen] | 82 | 402 | 0.636 | 0.039 | 0.473 | 280 | 48 | 140 | 80 | 320 | 0.09 | 0.852 |
| LNPKTNKWEDKRY [pep 6] | 62 | 278 | 0.547 | 0.033 | 0.145 | 120 | 62 | 760 | 340 | 240 | 0.004 | 0.828 |
| TNKWEDK [pep 5] | 43 | 356 | 0.498 | 0.032 | 0.208 | 260 | 24 | 180 | 36 | 660 | 0.012 | 0.850 |
